In the supplement of paper PMC10307832:

What was measured:
Assay in all cases: relative viability (nuclei count vs DMSO), 5 days (fraction); higher = more cells survive
Idelalisib + OSI-027 = compound: CC[C@H](Nc1ncnc2[nH]cnc12)c1nc2cccc(F)c2c(=O)n1-c1ccccc1 [Idelalisib] + COc1cccc2cc(-c3nc([C@H]4CC[C@H](C(=O)O)CC4)n4ncnc(N)c34)[nH]c12 [OSI-027] (partner 0.5 µM)
Summary of the method: (§1)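 Lung cancer cell lines were seeded in 1536-well plates and dosed by pin tool the next day, with either a single drug or a fixed anchor-drug dose combined with five library-drug doses (not always all listed) spaced in √10 steps. Five days later, one step fixed the cells and stained their nuclei (final 0.05% Triton X-100, 1% formaldehyde, 1 ug/ml Hoechst), and nuclei were counted on 4× images. Relative viability is the nuclei count in treated wells divided by the count in vehicle wells, and each value is the median of duplicate plates.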

Idelalisib + Alpelisib = compound: CC[C@H](Nc1ncnc2[nH]cnc12)c1nc2cccc(F)c2c(=O)n1-c1ccccc1 [Idelalisib] + Cc1nc(NC(=O)N2CCC[C@H]2C(N)=O)sc1-c1ccnc(C(C)(C)C(F)(F)F)c1 [Alpelisib] (partner 2 µM)
Summary of the method: as §1

Idelalisib + Pemetrexed = compound: CC[C@H](Nc1ncnc2[nH]cnc12)c1nc2cccc(F)c2c(=O)n1-c1ccccc1 [Idelalisib] + Nc1nc2[nH]cc(CCc3ccc(C(=O)N[C@@H](CCC(=O)O)C(=O)O)cc3)c2c(=O)[nH]1 [Pemetrexed] (partner 0.2 µM)
Summary of the method: as §1

Idelalisib + Olaparib = compound: CC[C@H](Nc1ncnc2[nH]cnc12)c1nc2cccc(F)c2c(=O)n1-c1ccccc1 [Idelalisib] + O=C(c1cc(Cc2n[nH]c(=O)c3ccccc23)ccc1F)N1CCN(C(=O)C2CC2)CC1 [Olaparib] (partner 8 µM)
Summary of the method: as §1

Cell Line	relative viability (Idelalisib + OSI-027; first compound 0.04 µM)	relative viability (Idelalisib + OSI-027; first compound 0.1265 µM)	relative viability (Idelalisib + OSI-027; first compound 0.4 µM)	relative viability (Idelalisib + OSI-027; first compound 1.265 µM)	relative viability (Idelalisib + OSI-027; first compound 4 µM)	relative viability (Idelalisib + Alpelisib; first compound 0.04 µM)	relative viability (Idelalisib + Alpelisib; first compound 0.1265 µM)	relative viability (Idelalisib + Alpelisib; first compound 0.4 µM)	relative viability (Idelalisib + Alpelisib; first compound 1.265 µM)	relative viability (Idelalisib + Alpelisib; first compound 4 µM)	relative viability (Idelalisib + Pemetrexed; first compound 0.04 µM)	relative viability (Idelalisib + Pemetrexed; first compound 0.1265 µM)	relative viability (Idelalisib + Pemetrexed; first compound 0.4 µM)	relative viability (Idelalisib + Pemetrexed; first compound 1.265 µM)	relative viability (Idelalisib + Pemetrexed; first compound 4 µM)	relative viability (Idelalisib + Olaparib; first compound 0.04 µM)	relative viability (Idelalisib + Olaparib; first compound 0.1265 µM)	relative viability (Idelalisib + Olaparib; first compound 0.4 µM)	relative viability (Idelalisib + Olaparib; first compound 1.265 µM)	relative viability (Idelalisib + Olaparib; first compound 4 µM)
NCI-H2170	0.722	0.793	0.637	0.609	0.649	0.795	0.854	0.708	0.688	0.547	0.292	0.254	0.268	0.262	0.29	0.606	0.679	0.643	0.558	0.515
BEN	0.263	0.286	0.257	0.294	0.291	1.05	1.13	0.853	1.04	0.853	0.824	0.709	0.895	0.736	0.724	1.02	0.955	1.02	1.12	0.847
NCI-H2009	0.642	0.646	0.515	0.509	0.557	1.18	1.12	1.14	1.17	1.01	0.99	0.996	1.03	1.09	0.991	0.639	0.712	0.672	0.74	0.516
LC-2-ad	0.944	0.781	0.651	0.82	0.715	0.887	0.683	0.959	0.893	0.637	0.282	0.276	0.25	0.267	0.26	0.691	0.728	0.764	0.805	0.734
NCI-H1437	0.861	0.864	0.795	1.07	0.967	0.947	1.07	0.892	0.84	0.748	0.34	0.315	0.311	0.317	0.268	0.618	0.636	0.634	0.658	0.607
NCI-H3122	0.879	0.952	0.729	0.941	0.764	0.709	0.782	0.685	0.777	0.631	0.21	0.207	0.196	0.188	0.198	0.611	0.626	0.669	0.584	0.49
NCI-H1734	0.659	0.593	0.404	0.579	0.537	0.695	0.7	0.574	0.592	0.443	0.417	0.455	0.399	0.363	0.364	0.578	0.578	0.561	0.607	0.704
HCC-15	0.702	0.754	0.509	0.869	0.668	1.07	0.884	0.794	0.912	0.83	0.242	0.22	0.213	0.22	0.221	0.743	0.583	0.699	0.799	0.707
NCI-H2405	0.675	0.648	0.433	0.612	0.516	0.811	0.642	0.537	0.683	0.544	1.13	1.06	0.986	0.974	1.09	0.893	0.885	0.76	0.868	0.836
NCI-H1993	0.575	0.53	0.512	0.584	0.552	0.691	0.592	0.679	0.665	0.667	0.592	0.67	0.548	0.614	0.59	1.16	1.07	0.866	0.915	0.791
NCI-H460	0.911	0.794	0.469	0.571	0.45	0.566	0.521	0.426	0.324	0.291	0.0676	0.0589	0.0612	0.0657	0.0587	0.491	0.466	0.461	0.454	0.472
NCI-H1651	0.701	0.731	0.508	0.778	0.596	0.921	0.864	0.907	0.964	0.845	0.634	0.355	0.537	0.522	0.59	0.19	0.171	0.184	0.161	0.179
NCI-H1975	0.819	0.764	0.61	0.917	0.429	0.681	0.609	0.552	0.613	0.4	0.292	0.334	0.29	0.276	0.303	0.787	0.835	0.741	0.778	0.615
NCI-H2126	0.67	0.678	0.462	0.732	0.704	0.739	0.739	0.611	0.675	0.6	0.848	0.739	0.523	0.769	0.619	0.933	0.916	0.834	0.972	0.898
201T	0.812	0.736	0.548	0.67	0.679	0.974	0.987	0.937	0.963	0.872	0.352	0.318	0.357	0.314	0.32	0.825	0.836	0.837	0.821	0.839
HCC-78	0.413	0.364	0.324	0.36	0.293	0.269	0.291	0.246	0.287	0.207	0.664	0.956	0.87	0.86	0.935	0.78	0.855	0.553	0.781	0.585
